Results as given in patent publication US11814382B2 (FUJIAN COSUNTER PHARMACEUTICAL CO., LTD., priority 2018, dated 2023).

What was measured:
[1] = Solid stability test of crystal form A (high temperature, high humidity, strong light); assay type: physicochemical
Text: The samples were respectively placed in a high-temperature, high-humidity and strong-light storage container. The samples were taken at 5 and 10 days after placing, and the test results were compared with the initial test results at 0 days.

[2] = system: MCD-induced mouse NASH model; test: In vivo efficacy test in MCD-induced mouse NASH model; set-up: species or system C57BL/6 male mice; conditions: dosing from week 5 of 8 weeks MCD feed, vs. model group (FIG. 13)
Procedure: SPF grade C57BL/6 male mice, 22-25 grams in weight.
MCD: methionine/choline deficient feed.
Liver Propylene Analytical Reagents: hematoxylin dyeing liquid, eosin dyeing liquid and Picro sirius dyeing liquid.
After the animals were adapted for one week in the facility, the normal control group was still fed with the normal feed, and other animals were fed with MCD feed instead. The drinking water didn't change and the feed was replaced once every 48 hours. Beginning at week 5, the remaining groups, except the normal control and model groups, were administrated with subject compound. The Experiment lasted for a total of 8 weeks. At the end of the experiment, animal liver samples were collected for histopathological analysis.

[3] = system: CCl4-induced mouse liver fibrosis model; test: In vivo efficacy test in CCl4-induced mouse liver fibrosis model; set-up: species or system Male C57BL/6 mice; conditions: oral gavage, day 1 to day 28 of CCl4 modeling, vs. model group (FIG. 14)
Procedure: Male C57BL/6 mice, 22-27 grams in weight, purchased from Shanghai Lingchang Biotechnology Co., Ltd.
Mice were transferred to the experimental area after one week of quarantine and adaptation. Animals were randomly divided into groups according to body weight and housed in cages at 5 mice per cage. 20% CCl4 solution with CCl4: Olive oil=1:4 was prepared by dissolving CCl4 in olive oil at a dose of 0.5 μl/g in mice. The mice of model group were orally three times a week for 4 weeks for molding, and the mice of normal control group was administrated only with the same volume of olive oil orally. The subject compounds were administered orally by oral gavage in a volume of 10 ml/kg per animal. The Day 1 of CCl4 modeling was initiated while dosing was initiated until day 28. At the end of the experiment, animal liver samples were collected for histopathological analysis.

Crystal form ([1]; High Humidity (25° C./Relative Humidity 90%, Open), Day 5): Crystal form A
Crystal form ([1]; High Humidity (25° C./Relative Humidity 90%, Open), Day 10): Crystal form A
Crystal form ([1]; High Temperature (60° C., Open), Day 5): Crystal form A
Crystal form ([1]; High Temperature (60° C., Open), Day 10): Crystal form A
Crystal form ([1]; Strong light (5000 lx, closed), Day 5): Crystal form A
Crystal form ([1]; Strong light (5000 lx, closed), Day 10): Crystal form A
Solid stability (conclusion) ([1]; high temperature, high humidity and strong light): good stability
Crystal form ([1]; initial, Day 0): Crystal form A
SMILES: Cc1cc(F)c(C(=O)Nc2cccc(-c3nnc4n3CCCC4)n2)cc1-n1cnc(C2CC2)c1 [Crystal form A]
Effect on liver fibrosis (liver histopathology) ([2]; 6 mg/Kg BID): significant effect on improving liver fibrosis
Effect on liver fibrosis (liver histopathology) ([2]; 60 mg/Kg BID): significant effect on improving liver fibrosis
Effect on liver fibrosis (liver histopathology) ([3]; 3 mg/Kg BID): significant effect on improving liver fibrosis
Effect on liver fibrosis (liver histopathology) ([3]; 30 mg/Kg BID): significant effect on improving liver fibrosis
